Tests used:
[1] = target: T1, Alpha-2A adrenergic receptor (Homo sapiens) (UniProt P08913); test: alpha2A Eurofins-Panlabs ligand profiling; settings: Compound concentration 10.0 uM
T1 sequence (whole entry): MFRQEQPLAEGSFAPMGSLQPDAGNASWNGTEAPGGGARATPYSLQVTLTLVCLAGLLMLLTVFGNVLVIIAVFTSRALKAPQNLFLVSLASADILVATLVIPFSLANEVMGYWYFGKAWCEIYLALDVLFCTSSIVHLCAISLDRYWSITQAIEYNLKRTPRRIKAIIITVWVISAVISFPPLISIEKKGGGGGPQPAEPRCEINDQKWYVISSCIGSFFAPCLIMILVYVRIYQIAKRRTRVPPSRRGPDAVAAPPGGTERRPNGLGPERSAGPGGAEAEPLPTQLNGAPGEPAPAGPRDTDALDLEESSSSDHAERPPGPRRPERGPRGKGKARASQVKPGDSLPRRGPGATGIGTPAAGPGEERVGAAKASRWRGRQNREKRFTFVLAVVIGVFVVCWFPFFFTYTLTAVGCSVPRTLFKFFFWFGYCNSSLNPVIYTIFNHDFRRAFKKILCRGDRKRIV

[2] = test system: Epidermal growth factor receptor (Homo sapiens), P00533 [UNDEFINED MUTATION]; settings: Compound concentration 1000.0 nM
[3] = target: Serine/threonine-protein kinase PAK 1 (Homo sapiens) (UniProt Q13153); settings: Compound concentration 1000.0 nM
[4] = target: 5-hydroxytryptamine receptor 5A (Homo sapiens) (UniProt P47898); settings: Compound concentration 10.0 uM
[5] = target: 5-hydroxytryptamine receptor 2B (Homo sapiens) (UniProt P41595); settings: Compound concentration 10.0 uM
[6] = target: Ribosomal protein S6 kinase alpha-2 (Homo sapiens) (UniProt Q15349); settings: Compound concentration 1000.0 nM
[7] = target: Dual specificity protein kinase CLK4 (Homo sapiens) (UniProt Q9HAZ1); settings: Compound concentration 1000.0 nM
[8] = target: Inhibitor of nuclear factor kappa-B kinase subunit alpha (Homo sapiens) (UniProt O15111); settings: Compound concentration 1000.0 nM
[9] = target: Alpha-2B adrenergic receptor (Homo sapiens, UniProt P18089); test: alpha2B Eurofins-Panlabs ligand profiling
[10] = target: Phosphatidylinositol 4-phosphate 3-kinase C2 domain-containing subunit beta (Homo sapiens) (UniProt O00750); settings: Compound concentration 1000.0 nM
[11] = target: Dual specificity mitogen-activated protein kinase kinase 1 (Homo sapiens) (UniProt Q02750); settings: Compound concentration 1000.0 nM
[12] = target: Mitogen-activated protein kinase 14 (Homo sapiens) (UniProt Q16539); settings: Compound concentration 1000.0 nM
[13] = target: Serine/threonine-protein kinase TAO1 (Homo sapiens) (UniProt Q7L7X3); settings: Compound concentration 1000.0 nM
[14] = target: Casein kinase I isoform delta (Homo sapiens) (UniProt P48730); settings: Compound concentration 1000.0 nM
[15] = target: Beta-2 adrenergic receptor (Homo sapiens) (UniProt P07550); test: beta2 Eurofins-Panlabs ligand profiling; settings: Compound concentration 10.0 uM
[16] = target: Serine/threonine-protein kinase MAK (Homo sapiens) (UniProt P20794); settings: Compound concentration 1000.0 nM
[17] = target: Serotonin 1 (5-HT1) receptor (Homo sapiens) (UniProt P30939+P28222+P08908+P28221+P28566); test: 5-HT1 Eurofins-Panlabs ligand profiling; type: protein assay; settings: Compound concentration 10.0 uM
[18] = target: Serine/threonine-protein kinase TBK1 (Homo sapiens) (UniProt Q9UHD2); settings: Compound concentration 1000.0 nM
[19] = target: Testis-specific serine/threonine-protein kinase 3 (Homo sapiens) (UniProt Q96PN8); settings: Compound concentration 1000.0 nM
[20] = target: Beta-3 adrenergic receptor (Homo sapiens) (UniProt P13945); test: beta3 Eurofins-Panlabs ligand profiling; settings: Compound concentration 10.0 uM
[21] = target: cAMP-dependent protein kinase catalytic subunit PRKX (Homo sapiens) (UniProt P51817); settings: Compound concentration 1000.0 nM
[22] = target: 5-hydroxytryptamine receptor 3A (Homo sapiens) (UniProt P46098); settings: Compound concentration 10.0 uM
[23] = target: Serine/threonine-protein kinase tousled-like 1 (Homo sapiens) (UniProt Q9UKI8); settings: Compound concentration 1000.0 nM
[24] = target: Muscarinic acetylcholine receptor M5 (Homo sapiens) (UniProt P08912); settings: Compound concentration 10.0 uM
[25] = target: Activin receptor type-2B (Homo sapiens) (UniProt Q13705); settings: Compound concentration 1000.0 nM
[26] = target: Serine/threonine-protein kinase PLK3 (Homo sapiens) (UniProt Q9H4B4); settings: Compound concentration 1000.0 nM
[27] = target: Calcium/calmodulin-dependent protein kinase type 1 (Homo sapiens) (UniProt Q14012); settings: Compound concentration 1000.0 nM
[28] = target: Leukocyte tyrosine kinase receptor (Homo sapiens) (UniProt P29376); settings: Compound concentration 1000.0 nM
[29] = target: Serine/threonine-protein kinase TAO2 (Homo sapiens) (UniProt Q9UL54); settings: Compound concentration 1000.0 nM
[30] = target: Muscarinic acetylcholine receptor M4 (Homo sapiens) (UniProt P08173); settings: Compound concentration 10.0 uM
[31] = target: Alpha-1A adrenergic receptor (Homo sapiens) (UniProt P35348); settings: Compound concentration 10.0 uM
[32] = target: Alpha-1D adrenergic receptor (Homo sapiens, UniProt P25100); test: GPCRScan assay: inhibition of Alpha1D; parameters: radioligand conc. used [nm] 0.3 – 1.0, parental cells stable
[33] = target: Alpha-2B adrenergic receptor (Homo sapiens) (UniProt P18089); settings: Compound concentration 10.0 uM
[34] = target: Beta-3 adrenergic receptor (Homo sapiens) (UniProt P13945); settings: Compound concentration 10.0 uM
[35] = target: Alpha-1A adrenergic receptor (Homo sapiens, UniProt P35348)

Serine/threonine-protein kinase TBK1 (Homo sapiens), sequence (Q9UHD2 whole entry): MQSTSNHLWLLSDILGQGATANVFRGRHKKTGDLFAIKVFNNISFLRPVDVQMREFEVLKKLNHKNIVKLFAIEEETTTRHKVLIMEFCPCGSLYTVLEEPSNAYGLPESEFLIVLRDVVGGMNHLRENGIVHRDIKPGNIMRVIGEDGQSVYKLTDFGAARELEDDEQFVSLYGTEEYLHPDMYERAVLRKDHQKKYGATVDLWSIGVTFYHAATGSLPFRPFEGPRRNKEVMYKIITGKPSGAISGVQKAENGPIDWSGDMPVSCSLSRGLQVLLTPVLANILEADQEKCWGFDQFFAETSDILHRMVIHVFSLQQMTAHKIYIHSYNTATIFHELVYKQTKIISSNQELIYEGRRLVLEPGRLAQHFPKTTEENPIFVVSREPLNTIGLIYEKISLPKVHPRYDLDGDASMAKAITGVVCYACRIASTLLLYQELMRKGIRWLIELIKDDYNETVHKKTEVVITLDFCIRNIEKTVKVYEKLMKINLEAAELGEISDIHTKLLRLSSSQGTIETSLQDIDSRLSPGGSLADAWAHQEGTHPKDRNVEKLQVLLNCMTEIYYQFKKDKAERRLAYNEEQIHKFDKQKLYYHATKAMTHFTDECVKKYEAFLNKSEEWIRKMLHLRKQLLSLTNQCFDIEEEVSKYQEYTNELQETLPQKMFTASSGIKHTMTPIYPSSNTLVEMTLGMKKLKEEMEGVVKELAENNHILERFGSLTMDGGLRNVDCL
Inhibitor of nuclear factor kappa-B kinase subunit alpha (Homo sapiens), sequence (O15111 whole entry): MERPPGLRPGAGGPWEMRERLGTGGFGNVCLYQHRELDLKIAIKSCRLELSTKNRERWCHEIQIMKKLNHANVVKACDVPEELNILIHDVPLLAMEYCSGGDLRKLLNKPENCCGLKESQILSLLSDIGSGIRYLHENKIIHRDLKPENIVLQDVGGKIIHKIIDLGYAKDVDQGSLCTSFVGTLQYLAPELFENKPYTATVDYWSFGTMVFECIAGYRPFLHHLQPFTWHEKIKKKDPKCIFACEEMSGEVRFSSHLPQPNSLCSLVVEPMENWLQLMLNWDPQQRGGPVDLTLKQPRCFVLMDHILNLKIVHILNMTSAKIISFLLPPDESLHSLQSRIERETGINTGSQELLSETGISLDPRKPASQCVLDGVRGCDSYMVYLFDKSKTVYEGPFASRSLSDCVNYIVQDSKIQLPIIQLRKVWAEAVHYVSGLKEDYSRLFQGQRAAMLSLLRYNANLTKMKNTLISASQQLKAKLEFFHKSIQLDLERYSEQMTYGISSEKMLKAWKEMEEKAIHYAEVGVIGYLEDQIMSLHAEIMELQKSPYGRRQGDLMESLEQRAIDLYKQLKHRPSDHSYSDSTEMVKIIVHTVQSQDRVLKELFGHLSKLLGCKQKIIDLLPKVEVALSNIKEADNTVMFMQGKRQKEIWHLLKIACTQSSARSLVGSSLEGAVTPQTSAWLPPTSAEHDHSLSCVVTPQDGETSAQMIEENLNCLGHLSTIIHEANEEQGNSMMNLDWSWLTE
Ribosomal protein S6 kinase alpha-2 (Homo sapiens), sequence (Q15349 whole entry): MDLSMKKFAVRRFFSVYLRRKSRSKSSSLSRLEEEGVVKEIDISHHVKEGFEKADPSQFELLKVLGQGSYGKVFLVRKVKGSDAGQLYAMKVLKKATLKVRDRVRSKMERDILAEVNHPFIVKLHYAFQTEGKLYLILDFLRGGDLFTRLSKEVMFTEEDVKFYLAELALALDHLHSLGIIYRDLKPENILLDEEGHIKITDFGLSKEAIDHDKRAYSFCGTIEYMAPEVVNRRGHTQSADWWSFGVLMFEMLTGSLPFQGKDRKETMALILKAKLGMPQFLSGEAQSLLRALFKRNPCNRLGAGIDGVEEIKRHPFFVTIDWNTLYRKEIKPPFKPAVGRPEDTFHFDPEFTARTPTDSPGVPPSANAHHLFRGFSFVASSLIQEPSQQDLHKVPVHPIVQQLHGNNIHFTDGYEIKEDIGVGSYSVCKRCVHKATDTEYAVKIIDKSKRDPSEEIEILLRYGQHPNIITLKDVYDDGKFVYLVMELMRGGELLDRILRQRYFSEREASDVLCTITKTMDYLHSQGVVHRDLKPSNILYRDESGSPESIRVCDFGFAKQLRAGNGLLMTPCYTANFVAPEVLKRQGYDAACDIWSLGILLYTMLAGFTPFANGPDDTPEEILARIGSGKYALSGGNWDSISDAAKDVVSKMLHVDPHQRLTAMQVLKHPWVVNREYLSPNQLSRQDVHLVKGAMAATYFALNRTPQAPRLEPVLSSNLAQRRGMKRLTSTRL
Dual specificity mitogen-activated protein kinase kinase 1 (Homo sapiens), sequence (Q02750 whole entry): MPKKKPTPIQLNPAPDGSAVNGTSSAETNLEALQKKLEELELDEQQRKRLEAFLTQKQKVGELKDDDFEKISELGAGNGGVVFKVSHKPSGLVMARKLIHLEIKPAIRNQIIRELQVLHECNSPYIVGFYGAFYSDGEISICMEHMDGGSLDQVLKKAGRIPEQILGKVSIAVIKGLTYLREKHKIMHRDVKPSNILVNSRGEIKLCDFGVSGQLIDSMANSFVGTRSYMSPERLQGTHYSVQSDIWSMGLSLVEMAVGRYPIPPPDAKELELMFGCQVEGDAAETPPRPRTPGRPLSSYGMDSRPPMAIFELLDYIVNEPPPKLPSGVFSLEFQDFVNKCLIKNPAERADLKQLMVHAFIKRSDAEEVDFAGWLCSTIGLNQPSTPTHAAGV
Phosphatidylinositol 4-phosphate 3-kinase C2 domain-containing subunit beta (Homo sapiens), sequence (O00750 whole entry, the tested form may be a part): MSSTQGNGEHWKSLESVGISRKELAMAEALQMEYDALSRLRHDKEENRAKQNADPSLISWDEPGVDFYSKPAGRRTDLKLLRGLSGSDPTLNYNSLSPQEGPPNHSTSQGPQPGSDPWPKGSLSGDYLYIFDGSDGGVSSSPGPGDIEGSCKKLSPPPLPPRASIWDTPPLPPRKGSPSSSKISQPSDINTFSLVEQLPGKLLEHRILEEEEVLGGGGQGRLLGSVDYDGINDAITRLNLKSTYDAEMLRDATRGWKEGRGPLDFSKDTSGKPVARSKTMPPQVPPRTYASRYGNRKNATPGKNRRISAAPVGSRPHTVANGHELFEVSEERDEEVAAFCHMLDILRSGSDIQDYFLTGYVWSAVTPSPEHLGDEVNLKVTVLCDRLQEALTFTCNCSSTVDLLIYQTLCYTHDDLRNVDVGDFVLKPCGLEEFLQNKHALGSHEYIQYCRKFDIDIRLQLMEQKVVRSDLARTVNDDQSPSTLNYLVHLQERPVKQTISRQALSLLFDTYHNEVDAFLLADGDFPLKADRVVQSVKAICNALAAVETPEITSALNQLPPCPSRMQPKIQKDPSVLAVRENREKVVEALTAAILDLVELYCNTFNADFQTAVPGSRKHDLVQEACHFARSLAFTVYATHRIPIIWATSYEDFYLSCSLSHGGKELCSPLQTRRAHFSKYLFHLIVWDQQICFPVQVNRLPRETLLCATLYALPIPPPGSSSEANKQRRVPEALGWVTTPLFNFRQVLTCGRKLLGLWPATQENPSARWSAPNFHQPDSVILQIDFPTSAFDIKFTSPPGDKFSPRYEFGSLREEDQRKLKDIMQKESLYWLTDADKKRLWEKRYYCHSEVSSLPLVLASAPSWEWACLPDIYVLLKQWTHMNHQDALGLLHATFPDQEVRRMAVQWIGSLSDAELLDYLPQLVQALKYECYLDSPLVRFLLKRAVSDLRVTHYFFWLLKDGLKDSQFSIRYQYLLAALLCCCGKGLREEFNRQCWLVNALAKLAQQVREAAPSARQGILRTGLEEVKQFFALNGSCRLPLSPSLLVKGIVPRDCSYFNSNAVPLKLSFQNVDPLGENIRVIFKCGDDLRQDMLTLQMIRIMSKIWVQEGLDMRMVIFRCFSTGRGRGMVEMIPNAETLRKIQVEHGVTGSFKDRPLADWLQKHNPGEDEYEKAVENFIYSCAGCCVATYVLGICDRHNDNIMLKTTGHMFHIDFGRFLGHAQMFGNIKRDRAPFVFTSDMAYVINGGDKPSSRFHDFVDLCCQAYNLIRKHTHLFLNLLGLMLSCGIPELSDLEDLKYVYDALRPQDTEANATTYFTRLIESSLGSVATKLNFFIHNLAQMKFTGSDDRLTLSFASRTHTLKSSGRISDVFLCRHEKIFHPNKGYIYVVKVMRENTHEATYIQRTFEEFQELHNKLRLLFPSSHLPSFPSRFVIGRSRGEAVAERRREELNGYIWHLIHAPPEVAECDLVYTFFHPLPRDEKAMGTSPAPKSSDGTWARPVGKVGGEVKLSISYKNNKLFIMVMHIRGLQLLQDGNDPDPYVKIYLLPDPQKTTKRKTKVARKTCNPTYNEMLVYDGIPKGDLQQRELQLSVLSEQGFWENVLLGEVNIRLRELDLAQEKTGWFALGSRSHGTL
Beta-3 adrenergic receptor (Homo sapiens), sequence (P13945 whole entry, looked up): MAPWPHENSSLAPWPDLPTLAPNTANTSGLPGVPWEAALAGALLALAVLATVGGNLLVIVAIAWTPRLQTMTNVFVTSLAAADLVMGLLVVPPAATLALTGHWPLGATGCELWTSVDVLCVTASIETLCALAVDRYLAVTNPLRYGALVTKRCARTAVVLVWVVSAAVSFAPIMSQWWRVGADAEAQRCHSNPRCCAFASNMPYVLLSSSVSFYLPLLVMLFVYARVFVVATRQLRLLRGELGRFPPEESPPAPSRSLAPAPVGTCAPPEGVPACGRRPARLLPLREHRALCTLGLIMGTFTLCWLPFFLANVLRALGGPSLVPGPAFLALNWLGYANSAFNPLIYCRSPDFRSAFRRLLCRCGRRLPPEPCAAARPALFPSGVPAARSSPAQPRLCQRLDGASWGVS
Casein kinase I isoform delta (Homo sapiens), sequence (P48730 whole entry, looked up, canonical isoform): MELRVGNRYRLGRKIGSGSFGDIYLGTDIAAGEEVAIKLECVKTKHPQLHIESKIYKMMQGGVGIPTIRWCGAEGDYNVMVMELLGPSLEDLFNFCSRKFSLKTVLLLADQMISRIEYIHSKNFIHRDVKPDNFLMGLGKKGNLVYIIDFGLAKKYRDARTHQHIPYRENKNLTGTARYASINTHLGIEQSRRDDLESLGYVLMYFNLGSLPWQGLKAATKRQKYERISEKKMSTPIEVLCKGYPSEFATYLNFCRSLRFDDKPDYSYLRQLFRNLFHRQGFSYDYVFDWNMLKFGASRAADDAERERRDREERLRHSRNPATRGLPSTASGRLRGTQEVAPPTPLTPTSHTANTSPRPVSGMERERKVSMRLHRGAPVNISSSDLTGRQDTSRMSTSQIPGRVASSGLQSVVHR

Structure (SMILES): C[C@H](c1cccc(C#N)c1)n1cc(Cl)cc(C(N)=O)c1=N [(R)-9s]
- inhibition [1]: 5%
- residual activity [2]: 78%
- residual activity [3]: 100%
- inhibition [4]: 0.88%
- inhibition [5]: 9.88%
- residual activity [6]: 97%
- residual activity [7]: 100%
- residual activity [8]: 100%
- IC50 [9]: 1400 nM
- residual activity [10]: 100%
- residual activity [11]: 75%
- residual activity [12]: 100%
- residual activity [13]: 90%
- residual activity [14]: 100%
- inhibition [15]: 4%
- residual activity [16]: 100%
- inhibition [17]: 0%
- residual activity [18]: 98%
- residual activity [19]: 100%
- inhibition [20]: -6%
- residual activity [21]: 100%
- inhibition [22]: -5.97%
- residual activity [23]: 94%
- inhibition [24]: 3.44%
- residual activity [25]: 100%
- residual activity [26]: 83%
- residual activity [27]: 100%
- residual activity [28]: 99%
- residual activity [29]: 82%

Structure (SMILES): C[C@@H](c1cccc(C#N)c1)n1cc(Cl)cc(C(N)=O)c1=N [(S)-9s]
- residual activity [2]: 88%
- residual activity [3]: 100%
- inhibition [30]: -6.48%
- inhibition [5]: 3.93%
- residual activity [6]: 93%
- inhibition [31]: 54.8%
- Ki [32]: 1480 nM
- inhibition [33]: 0.7%
- residual activity [7]: 100%
- residual activity [8]: 100%
- residual activity [10]: 96%
- residual activity [11]: 80%
- residual activity [12]: 100%
- residual activity [13]: 89%
- residual activity [14]: 100%
- inhibition [34]: -4.49%
- residual activity [16]: 94%
- residual activity [18]: 89%
- residual activity [19]: 100%
- Ki [35]: > 2700 nM (not active)
- residual activity [21]: 100%
- residual activity [23]: 100%
- inhibition [24]: -1.05%
- residual activity [25]: 100%
- residual activity [26]: 89%
- residual activity [27]: 100%
- residual activity [28]: 94%
- residual activity [29]: 84%

— ChEMBL document CHEMBL4507301 (2021)
